According to US10670605B2, “Cysteine reactive probes and uses thereof” (The Scripps Research Institute, priority 2015, dated 2020):
Structures can show the parent of a compound that is named as a salt.

Tests used:
Assay in all cases: isoTOP-ABPP of compound-treated primary human T cells
Type in all cases: cell-based
[1] = molecular target: T1, Cys residues in primary human T cells (Homo sapiens, UniProt P00813); details: ADA C75 (P00813)
T1 sequence (P00813 1-363): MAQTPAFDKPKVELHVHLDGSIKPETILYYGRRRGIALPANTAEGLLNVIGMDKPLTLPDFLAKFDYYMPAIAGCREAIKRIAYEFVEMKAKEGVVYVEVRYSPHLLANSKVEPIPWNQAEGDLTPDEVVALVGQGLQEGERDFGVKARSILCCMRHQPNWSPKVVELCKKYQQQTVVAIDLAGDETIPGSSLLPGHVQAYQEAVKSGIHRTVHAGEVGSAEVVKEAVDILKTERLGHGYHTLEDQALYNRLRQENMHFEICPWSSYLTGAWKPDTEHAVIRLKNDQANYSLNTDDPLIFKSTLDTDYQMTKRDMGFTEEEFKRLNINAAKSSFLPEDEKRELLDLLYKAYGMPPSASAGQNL

[2] = molecular target: T2, Cys residues in primary human T cells (Homo sapiens, UniProt P11216); details: PYGB C326 (P11216)
T2 sequence (P11216 1-843): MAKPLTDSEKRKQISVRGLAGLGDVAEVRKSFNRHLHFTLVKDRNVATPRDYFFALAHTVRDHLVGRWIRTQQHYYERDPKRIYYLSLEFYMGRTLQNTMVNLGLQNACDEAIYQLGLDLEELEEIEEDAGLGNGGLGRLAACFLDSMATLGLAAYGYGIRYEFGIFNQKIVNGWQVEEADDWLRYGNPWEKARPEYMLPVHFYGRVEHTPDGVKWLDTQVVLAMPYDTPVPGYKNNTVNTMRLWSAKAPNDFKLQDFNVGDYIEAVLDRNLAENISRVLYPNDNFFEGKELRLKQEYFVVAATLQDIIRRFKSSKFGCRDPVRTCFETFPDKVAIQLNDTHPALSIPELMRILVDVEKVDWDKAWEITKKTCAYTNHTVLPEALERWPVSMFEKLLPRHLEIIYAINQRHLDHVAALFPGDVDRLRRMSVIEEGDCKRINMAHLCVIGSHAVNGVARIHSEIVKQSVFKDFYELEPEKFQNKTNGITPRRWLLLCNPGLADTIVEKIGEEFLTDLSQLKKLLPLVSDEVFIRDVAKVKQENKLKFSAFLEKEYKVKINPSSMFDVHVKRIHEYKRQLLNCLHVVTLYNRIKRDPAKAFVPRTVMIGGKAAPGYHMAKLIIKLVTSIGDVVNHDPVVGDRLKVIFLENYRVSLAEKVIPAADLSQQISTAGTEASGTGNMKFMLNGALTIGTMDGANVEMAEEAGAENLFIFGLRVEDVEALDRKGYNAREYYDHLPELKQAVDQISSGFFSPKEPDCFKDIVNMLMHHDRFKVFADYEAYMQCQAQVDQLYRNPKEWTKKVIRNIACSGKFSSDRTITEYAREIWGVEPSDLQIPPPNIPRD

[3] = molecular target: T3, Cys residues in primary human T cells (Homo sapiens, UniProt Q6IA69); details: NADSYN1 C428 (Q6IA69)
T3 sequence (Q6IA69 1-706): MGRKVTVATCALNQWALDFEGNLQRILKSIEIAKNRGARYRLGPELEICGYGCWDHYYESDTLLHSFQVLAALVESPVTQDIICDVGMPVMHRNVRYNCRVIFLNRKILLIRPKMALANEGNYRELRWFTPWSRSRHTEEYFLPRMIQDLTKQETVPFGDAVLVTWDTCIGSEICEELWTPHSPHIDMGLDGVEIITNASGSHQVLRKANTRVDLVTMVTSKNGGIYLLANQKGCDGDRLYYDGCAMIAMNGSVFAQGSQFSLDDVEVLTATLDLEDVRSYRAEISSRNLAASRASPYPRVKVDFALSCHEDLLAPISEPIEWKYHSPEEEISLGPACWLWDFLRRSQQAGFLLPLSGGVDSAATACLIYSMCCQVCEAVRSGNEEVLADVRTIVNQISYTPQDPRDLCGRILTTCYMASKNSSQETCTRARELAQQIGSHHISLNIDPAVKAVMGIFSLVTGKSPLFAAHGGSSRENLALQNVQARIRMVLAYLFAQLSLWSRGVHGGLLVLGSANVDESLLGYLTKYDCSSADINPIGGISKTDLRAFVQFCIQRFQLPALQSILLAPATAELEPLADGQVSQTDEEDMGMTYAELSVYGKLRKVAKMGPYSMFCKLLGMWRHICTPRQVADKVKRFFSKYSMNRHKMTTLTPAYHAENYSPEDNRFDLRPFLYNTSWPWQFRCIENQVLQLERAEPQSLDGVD

[4] = molecular target: Cys residues in primary human T cells (Homo sapiens, UniProt Q7Z6Z7); details: HUWE1 C3372 (Q7Z6Z7)
Cys residues in primary human T cells (Homo sapiens, UniProt Q7Z6Z7), sequence (Q7Z6Z7 whole entry): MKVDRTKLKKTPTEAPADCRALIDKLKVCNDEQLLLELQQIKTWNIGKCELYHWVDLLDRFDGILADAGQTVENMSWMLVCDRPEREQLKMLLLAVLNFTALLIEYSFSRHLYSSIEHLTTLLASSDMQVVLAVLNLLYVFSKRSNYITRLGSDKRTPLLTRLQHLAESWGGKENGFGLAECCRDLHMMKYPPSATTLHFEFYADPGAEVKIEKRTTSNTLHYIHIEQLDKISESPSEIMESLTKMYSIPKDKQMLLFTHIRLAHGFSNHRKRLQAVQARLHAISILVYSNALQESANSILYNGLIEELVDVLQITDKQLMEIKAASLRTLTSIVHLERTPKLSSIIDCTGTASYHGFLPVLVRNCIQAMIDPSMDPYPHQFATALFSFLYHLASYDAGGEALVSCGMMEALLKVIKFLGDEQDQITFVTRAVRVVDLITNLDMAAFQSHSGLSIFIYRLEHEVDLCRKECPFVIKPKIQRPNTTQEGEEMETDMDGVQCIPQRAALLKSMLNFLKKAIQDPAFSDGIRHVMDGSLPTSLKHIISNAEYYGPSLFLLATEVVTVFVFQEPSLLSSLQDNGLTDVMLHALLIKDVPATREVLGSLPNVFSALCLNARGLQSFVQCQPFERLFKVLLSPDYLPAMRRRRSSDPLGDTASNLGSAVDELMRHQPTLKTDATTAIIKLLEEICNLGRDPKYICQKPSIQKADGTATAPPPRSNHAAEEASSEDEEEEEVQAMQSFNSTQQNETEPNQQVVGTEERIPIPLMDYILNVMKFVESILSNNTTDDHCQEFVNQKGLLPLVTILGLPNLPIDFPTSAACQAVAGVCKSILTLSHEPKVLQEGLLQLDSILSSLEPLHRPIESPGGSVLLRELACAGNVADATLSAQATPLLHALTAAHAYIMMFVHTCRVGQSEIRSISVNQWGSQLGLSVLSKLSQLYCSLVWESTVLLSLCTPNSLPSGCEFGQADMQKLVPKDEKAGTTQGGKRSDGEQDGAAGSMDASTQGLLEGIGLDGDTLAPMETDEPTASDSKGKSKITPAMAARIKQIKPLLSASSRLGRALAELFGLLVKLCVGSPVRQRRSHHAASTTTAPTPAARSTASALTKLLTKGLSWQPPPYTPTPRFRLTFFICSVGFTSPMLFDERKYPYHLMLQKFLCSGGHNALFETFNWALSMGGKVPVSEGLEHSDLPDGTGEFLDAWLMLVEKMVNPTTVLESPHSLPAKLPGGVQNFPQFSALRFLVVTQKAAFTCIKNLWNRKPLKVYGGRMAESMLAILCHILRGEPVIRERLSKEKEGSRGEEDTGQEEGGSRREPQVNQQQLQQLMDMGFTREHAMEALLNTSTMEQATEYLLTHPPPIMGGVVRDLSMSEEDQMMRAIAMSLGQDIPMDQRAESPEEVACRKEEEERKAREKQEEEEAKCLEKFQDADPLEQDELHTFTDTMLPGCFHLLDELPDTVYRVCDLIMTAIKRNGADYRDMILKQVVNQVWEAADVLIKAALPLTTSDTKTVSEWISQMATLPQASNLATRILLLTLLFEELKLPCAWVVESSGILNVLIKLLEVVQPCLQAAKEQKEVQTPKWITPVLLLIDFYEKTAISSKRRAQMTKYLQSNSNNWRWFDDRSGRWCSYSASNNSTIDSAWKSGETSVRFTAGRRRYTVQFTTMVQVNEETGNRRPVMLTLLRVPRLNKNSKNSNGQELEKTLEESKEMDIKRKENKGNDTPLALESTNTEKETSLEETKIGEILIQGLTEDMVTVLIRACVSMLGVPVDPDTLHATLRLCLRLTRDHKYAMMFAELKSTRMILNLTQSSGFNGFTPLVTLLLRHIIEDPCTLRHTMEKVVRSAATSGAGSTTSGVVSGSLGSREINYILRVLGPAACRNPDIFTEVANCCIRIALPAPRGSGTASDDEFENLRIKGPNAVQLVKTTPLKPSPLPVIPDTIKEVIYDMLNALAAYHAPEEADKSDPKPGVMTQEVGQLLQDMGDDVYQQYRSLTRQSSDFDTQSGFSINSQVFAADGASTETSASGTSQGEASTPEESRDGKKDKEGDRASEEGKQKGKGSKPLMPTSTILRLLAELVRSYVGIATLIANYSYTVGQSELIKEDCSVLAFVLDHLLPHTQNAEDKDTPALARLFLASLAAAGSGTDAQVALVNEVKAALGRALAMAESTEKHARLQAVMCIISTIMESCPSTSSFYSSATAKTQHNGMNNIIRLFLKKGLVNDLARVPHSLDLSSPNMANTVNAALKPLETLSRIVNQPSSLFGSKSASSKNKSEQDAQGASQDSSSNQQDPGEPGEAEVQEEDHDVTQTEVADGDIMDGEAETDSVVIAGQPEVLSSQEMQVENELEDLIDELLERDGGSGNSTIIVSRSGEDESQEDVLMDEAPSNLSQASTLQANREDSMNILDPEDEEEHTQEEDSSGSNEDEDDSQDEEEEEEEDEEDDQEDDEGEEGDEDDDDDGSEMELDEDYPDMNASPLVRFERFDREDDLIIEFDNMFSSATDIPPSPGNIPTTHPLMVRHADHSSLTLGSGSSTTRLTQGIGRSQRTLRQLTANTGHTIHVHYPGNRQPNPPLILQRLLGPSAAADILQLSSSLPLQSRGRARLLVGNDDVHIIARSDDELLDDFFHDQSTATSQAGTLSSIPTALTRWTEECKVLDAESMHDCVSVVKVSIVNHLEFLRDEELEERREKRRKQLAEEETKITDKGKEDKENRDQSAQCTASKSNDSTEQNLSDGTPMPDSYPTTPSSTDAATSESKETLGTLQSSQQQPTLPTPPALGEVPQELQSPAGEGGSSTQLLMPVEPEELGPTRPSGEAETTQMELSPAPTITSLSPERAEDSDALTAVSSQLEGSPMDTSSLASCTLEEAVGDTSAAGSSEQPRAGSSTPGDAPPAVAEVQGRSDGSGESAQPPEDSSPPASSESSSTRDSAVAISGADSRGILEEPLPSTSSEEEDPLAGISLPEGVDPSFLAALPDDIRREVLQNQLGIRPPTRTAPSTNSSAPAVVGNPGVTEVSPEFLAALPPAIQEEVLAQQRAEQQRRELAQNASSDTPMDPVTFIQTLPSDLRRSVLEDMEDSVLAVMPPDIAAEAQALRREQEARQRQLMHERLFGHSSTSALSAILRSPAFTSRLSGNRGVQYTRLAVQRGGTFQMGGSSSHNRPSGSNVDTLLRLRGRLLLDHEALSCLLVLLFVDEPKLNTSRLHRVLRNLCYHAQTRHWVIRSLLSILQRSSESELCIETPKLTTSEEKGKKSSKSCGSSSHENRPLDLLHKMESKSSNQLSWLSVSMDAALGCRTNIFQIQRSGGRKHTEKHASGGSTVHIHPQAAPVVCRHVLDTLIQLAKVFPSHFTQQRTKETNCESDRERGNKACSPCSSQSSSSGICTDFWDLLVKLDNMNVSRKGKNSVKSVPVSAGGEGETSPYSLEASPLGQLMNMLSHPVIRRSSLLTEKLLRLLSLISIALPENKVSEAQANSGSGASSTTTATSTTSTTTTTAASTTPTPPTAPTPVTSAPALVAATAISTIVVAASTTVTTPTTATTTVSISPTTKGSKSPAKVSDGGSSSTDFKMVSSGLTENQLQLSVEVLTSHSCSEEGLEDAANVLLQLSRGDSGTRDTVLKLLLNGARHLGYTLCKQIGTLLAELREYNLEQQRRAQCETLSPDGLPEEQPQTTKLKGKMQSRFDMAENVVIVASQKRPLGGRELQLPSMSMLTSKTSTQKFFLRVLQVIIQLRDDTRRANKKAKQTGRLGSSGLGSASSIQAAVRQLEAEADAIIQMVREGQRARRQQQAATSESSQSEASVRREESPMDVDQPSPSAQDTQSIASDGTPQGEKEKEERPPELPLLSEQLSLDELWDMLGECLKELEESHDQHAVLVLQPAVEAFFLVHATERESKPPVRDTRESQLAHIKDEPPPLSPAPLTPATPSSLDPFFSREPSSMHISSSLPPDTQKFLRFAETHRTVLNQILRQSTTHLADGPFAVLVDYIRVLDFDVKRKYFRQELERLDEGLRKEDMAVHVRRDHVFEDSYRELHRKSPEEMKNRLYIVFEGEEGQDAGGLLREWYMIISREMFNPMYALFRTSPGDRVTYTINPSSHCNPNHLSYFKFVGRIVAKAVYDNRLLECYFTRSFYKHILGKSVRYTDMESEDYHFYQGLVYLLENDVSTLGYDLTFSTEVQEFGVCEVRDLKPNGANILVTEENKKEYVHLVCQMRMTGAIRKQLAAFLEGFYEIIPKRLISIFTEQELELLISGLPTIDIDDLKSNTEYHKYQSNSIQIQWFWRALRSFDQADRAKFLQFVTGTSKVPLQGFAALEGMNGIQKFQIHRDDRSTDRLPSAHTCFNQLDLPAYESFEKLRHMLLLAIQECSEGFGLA

[5] = molecular target: T4, Cys residues in primary human T cells (Homo sapiens, UniProt Q9Y6C9); details: MTCH2 C296 (Q9Y6C9)
T4 sequence (Q9Y6C9 1-303): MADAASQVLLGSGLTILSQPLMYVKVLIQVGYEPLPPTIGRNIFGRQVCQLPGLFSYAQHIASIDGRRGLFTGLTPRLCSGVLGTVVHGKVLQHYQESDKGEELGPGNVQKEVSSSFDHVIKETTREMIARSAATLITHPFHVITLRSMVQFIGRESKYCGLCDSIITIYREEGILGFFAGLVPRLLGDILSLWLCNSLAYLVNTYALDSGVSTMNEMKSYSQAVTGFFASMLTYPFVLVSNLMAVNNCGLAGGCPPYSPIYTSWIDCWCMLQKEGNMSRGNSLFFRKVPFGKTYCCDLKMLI

Q: `COC(=O)/C=C/C(=O)OC` [DMF, dimethyl fumarate] was tested. Which “R value (DMSO/DMF)” value ([1]; DMF 10 μM 4h) did it give?
A: 2.29

Q: What about the “R value (DMSO/DMF)” value ([1]; DMF 50 μM 1h) of the same molecule?
A: 2.51

Q: And the “R value (DMSO/DMF)” value ([1]; DMF 50 μM 2h)?
A: 5.08

Q: And the “R value (DMSO/DMF)” value ([1]; DMF 50 μM 4h)?
A: 20

Q: What about the “R value (DMSO/DMF)” value ([2]; DMF 10 μM 4h) of the same molecule?
A: 1.65

Q: And the “R value (DMSO/DMF)” value ([2]; DMF 25 μM 4h)?
A: 3.53

Q: And the “R value (DMSO/DMF)” value ([2]; DMF 50 μM 1h)?
A: 2.47

Q: And the “R value (DMSO/DMF)” value ([2]; DMF 50 μM 2h)?
A: 3.73

Q: What about the “R value (DMSO/DMF)” value ([2]; DMF 50 μM 4h) of the same molecule?
A: 6.76

Q: What about the “R value (DMSO/DMF)” value ([3]; DMF 10 μM 4h) of the same molecule?
A: 1.43

Q: And the “R value (DMSO/DMF)” value ([3]; DMF 50 μM 1h)?
A: 1.81

Q: What about the “R value (DMSO/DMF)” value ([3]; DMF 50 μM 2h) of the same molecule?
A: 2.31

Q: And the “R value (DMSO/DMF)” value ([3]; DMF 50 μM 4h)?
A: 20

Q: And the “R value (DMSO/DMF)” value ([4]; DMF 10 μM 4h)?
A: 1.58

Q: And the “R value (DMSO/DMF)” value ([4]; DMF 50 μM 1h)?
A: 2.28

Q: What about the “R value (DMSO/DMF)” value ([4]; DMF 50 μM 2h) of the same molecule?
A: 4.43

Q: What about the “R value (DMSO/DMF)” value ([4]; DMF 50 μM 4h) of the same molecule?
A: 10.48

Q: What about the “R value (DMSO/DMF)” value ([5]; DMF 10 μM 4h) of the same molecule?
A: 1.68

Q: What about the “R value (DMSO/DMF)” value ([5]; DMF 50 μM 1h) of the same molecule?
A: 1.81

Q: And the “R value (DMSO/DMF)” value ([5]; DMF 50 μM 2h)?
A: 2.44

Q: And the “R value (DMSO/DMF)” value ([5]; DMF 50 μM 4h)?
A: 4.3
